Results taken from patent US4394375A, “Cephalosporin derivatives, and compositions containing them” (Beecham Group Limited, priority 1980, dated 1983).
In brackets after ≈: the same amount, converted by molar mass. Read-outs that look alike come from different tables or passages of the source.

Assays:
Assay type in all cases: cell-based
P. mirabilis 889 = assay: MIC, P. mirabilis 889; conditions: Proteus mirabilis
S. faecalis I = assay: MIC, S. faecalis I; conditions: Enterococcus faecalis
Ps aeruginosa NCTC 10662 = assay: MIC, Ps aeruginosa NCTC 10662
P. mirabilis C 977 = assay: MIC, P. mirabilis C 977; conditions: Proteus mirabilis, C977
E. coli NCTC 10418 = assay: MIC, E. coli NCTC 10418; conditions: Escherichia coli, NCTC10418
K. aerogenes A = assay: MIC, K. aerogenes A; conditions: Klebsiella aerogenes
S. pyogenes CN 10 = assay: MIC, S. pyogenes CN 10; conditions: Streptococcus pyogenes, CN10
N. catarrhalis 1502 = assay: MIC, N. catarrhalis 1502
E. coli JT 4 = assay: MIC, E. coli JT 4; conditions: Escherichia coli, JT4
S. marcescens US 32 = assay: MIC, S. marcescens US 32; conditions: Serratia marcescens, US32
S. aureus Oxford = assay: MIC, S. aureus Oxford; conditions: Staphylococcus aureus
E. cloacae Nl = assay: MIC, E. cloacae Nl; conditions: Enterobacter cloacae
P. rettgeri = assay: MIC, P. rettgeri; conditions: Providencia rettgeri
P. morganii = assay: MIC, P. morganii; conditions: Morganella morganii
Ps aeruginosa Dalgleish = assay: MIC, Ps aeruginosa Dalgleish; conditions: Ps aeruginosa Dalgleish 10^-2
E. coli ESS = assay: MIC, E. coli ESS; conditions: Escherichia coli
B. subtilis = assay: MIC, B. subtilis; conditions: Bacillus subtilis
E. coli JT 425 = assay: MIC, E. coli JT 425; conditions: Escherichia coli, JT425
S. aureus Russell = assay: MIC, S. aureus Russell; conditions: Staphylococcus aureus
[1] = Ps aeruginosa NCTC 10662, read-out: MIC

Row | SMILES | MIC (P. mirabilis 889) | MIC (S. faecalis I) | MIC (Ps aeruginosa NCTC 10662; Ps aeruginosa NCTC 10662 10^-2) | MIC (Ps aeruginosa NCTC 10662; [1]) | MIC (P. mirabilis C 977) | MIC (E. coli NCTC 10418) | MIC (K. aerogenes A) | MIC (S. pyogenes CN 10) | MIC (N. catarrhalis 1502) | MIC (E. coli JT 4) | MIC (S. marcescens US 32) | MIC (S. aureus Oxford) | MIC (E. cloacae Nl) | MIC (P. rettgeri) | MIC (P. morganii) | MIC (Ps aeruginosa Dalgleish) | MIC (E. coli ESS) | MIC (B. subtilis) | MIC (E. coli JT 425) | MIC (S. aureus Russell)
1 | CCN1CCN(C(=O)N[C@@H](C(=O)N[C@]2(CO)C(=O)N3C(C(=O)O)=C(COC(C)=O)CS[C@@H]32)c2ccccc2)C(=O)C1=O [Example 1d, Sodium 7β-[2(4-ethyl-2,3-dioxpiperazine-1-carbonylamino)]phenylacetamido-7α-hydroxymethylcephalosporanate] | 1 µg/mL | > 100 µg/mL | > 100 µg/mL | > 100 µg/mL | 2.5 µg/mL | 2.5 µg/mL | 0.5 µg/mL | 100 µg/mL | 0.2 µg/mL | 5 µg/mL | 5 µg/mL | > 100 µg/mL | 10 µg/mL | 10 µg/mL | 10 µg/mL | > 100 µg/mL | < 0.02 µg/mL | > 100 µg/mL | 2.5 µg/mL | > 100 µg/mL
2 | CCN1CCN(C(=O)N[C@@H](C(=O)N[C@]2(CO)C(=O)N3C(C(=O)O)=C(CSc4nnnn4C)CS[C@@H]32)c2ccccc2)C(=O)C1=O [Example 4, 7β-[2(4-Ethyl-2,3-dioxopiperazine-1-carbonylamino)-2-phenylacetamido]-7α-hydroxymethyl-3-(1-methyl-1H-tetrazol-5-ylthio)methylceph-3-em-4-carboxylic acid] | 2.5 µg/mL (≈ 3.79 µM) | – | > 100 µg/mL | > 100 µg/mL | 5 µg/mL (≈ 7.58 µM) | 1 µg/mL (≈ 1.52 µM) | 0.2 µg/mL (≈ 0.303 µM) | – | – | 5 µg/mL (≈ 7.58 µM) | 5 µg/mL (≈ 7.58 µM) | – | 25 µg/mL (≈ 37.9 µM) | 25 µg/mL (≈ 37.9 µM) | 10 µg/mL (≈ 15.2 µM) | 100 µg/mL (≈ 152 µM) | < 0.02 µg/mL | – | 1 µg/mL (≈ 1.52 µM) | –
3 | CCN1CCN(C(=O)N[C@@H](C(=O)N[C@]2(CO)C(=O)N3C(C(=O)O)=C(COC(C)=O)CS[C@@H]32)c2ccc(O)cc2)C(=O)C1=O [Example 3b, Sodium 7β-[2-(4-ethyl-2,3-dioxopiperazine-1-carbonylamino)-2-(4-hydroxyphenyl)acetamido]-7α-hydroxymethylcephalosporanate] | 0.5 µg/mL | > 100 µg/mL | 50 µg/mL | 50 µg/mL | 2.5 µg/mL | 1 µg/mL | 0.25 µg/mL | > 100 µg/mL | 0.5 µg/mL | 2.5 µg/mL | 5 µg/mL | > 100 µg/mL | 10 µg/mL | 10 µg/mL | 10 µg/mL | 25 µg/mL | 0.05 µg/mL | > 100 µg/mL | 1 µg/mL | > 100 µg/mL
